In patent US7074925B1, “N-substituted derivatives of 5-oxyiminobarbituric acid” (priority 1998, dated 2006):
Marks after values point to notes of the source that are not given here.

How the values were obtained:
[1] = tested on: Herpes virus of the type I (HSV-I/Leningrad/248/88); experiment: Effect on Herpes virus, cytopathogenic action on Vero cells; type: cell-based, Herpes Simplex virus; conditions: for Quantity of the unchanged cells (number of cells in 100 visual fields): Vero cells, 36 hours, cell control 10000; for percentage of protection of cells from virus: compared to the control of cell culture
Procedure: An antiviral activity was determined with respect to Herpes virus of the type I (HSV-I/Leningrad/248/88) by means of commonly accepted method. Viruses were grown on a continuous culture of Vero cells that have been received from the Bank of Cell Cultures of the Institute of Cytology of the Russian Academy of Science.
A virus in a final concentration of […] and the claimed compounds dissolved in DMSO in final concentrations of 100, 10 and 1 mg/l were added to cells that were grown on the RPMI-1640 medium with 10% fetal calf serum and placed into wells of the 96-well plate. 5 separate wells were used for each of tested concentrations of an agent. The plate was incubated during 60 minutes at 38° C. in a CO2-incubator. After the incubation, the virus was removed and then a fresh medium containing claimed compounds in used concentrations was again introduced.
Results were evaluated basing on presence of cytopathogenic action on the cells after 36 hours of incubation at 38° C. in the CO2-incubator.
The next controls were used in the experiment: • 1. Control of cell culture (capability to grow properly) • 2. Control of the virus (evaluation of capability for reproduction) • 3. Control of an antiviral activity of an antiviral drug Acyclovir • 4. Control of compounds (toxicity of compounds) • 5. Control of a solvent (DMSO) for toxicity.
To estimate a cytopathic action of the virus, a quantity of the unchanged cells was calculated in 100 visual fields formed by a special net of an eyepiece of the inverted microscope.

[2] = tested on: Human's platelet aggregation; experiment: Antiaggregational properties, ADP-induced platelet aggregation; type: cell-based; conditions: Homo sapiens, Platelet, ADP 2.5 μmol/l
Excerpt: Human's platelet aggregation was investigated in plasma of healthy 50±3 years donors that was enriched by thrombocytes, by means of aggregometer FRM-1. […] Magnitude of a maximum non-reversible platelet aggregation in the control samples (solvent) was adopted as 100%, and that in tested samples was counted as the percentage compared to the control.

[3] = Antiulcerous action, water immersion stress with immobilization; type: in vivo, rats; conditions: 20 mg/kg perorally
Procedure: Antiulcerous activity of substances was tested on a model of experimental water immersion stress with immobilization. […] After that, gastric mucous membrane was investigated, number and sizes of ulcers were counted, ulceration index was determined (an average sum of ulcer lengths per one animal in a group).

[4] = Hypoglycemic activity after glucose load; type: in vivo, mice; conditions: Glibenclamide I mg/kg
Procedure: Test substance (100 mg/kg) was perorally administrated to fasted mice, and, immediately after that, solution of glucose (1000 mg/kg) was administrated subcutaneously. Glucose content in blood was determined in a hour by the orthotoluidine method. Reducing of glucose level by more than 20% relative to control animals indicated hypoglycemic properties. Glibenclamide (I mg/kg) was utilized as a reference agent.

[5] = tested on: primary culture of human lymphocytes (IFN-α production); experiment: Interferon-inducing activity in primary culture of human lymphocytes; type: cell-based
Procedure: Interferon synthesis induction caused by the claimed compounds was conducted on a primary culture of human lymphocytes (it is these cells in a human organism that are the main producers of interferons). To obtain lymphocyte culture, fresh blood (within 12 hours after sampling) from healthy donors (not of group II) was used. To separate lymphocytes, heparinized blood obtained from healthy donor was centrifuged in a density gradient of ficoll-verografin of […] in order to extract a fraction of immunocompetent cells. This fraction was selected and diluted with the nutrient medium RPMI-1640, containing 5% of fetal calf serum, 0.3 mg/ml of L-glutamin, 100 un/ml of penicillin, and […] of streptomycin. The concentration of lymphocytes was considered after dying them with methylene blue and calculation of cell number in Goryaev chamber. Initial solutions of the claimed compounds were diluted with the nutrient medium RPMI-1640 so that the final concentrations of the compounds, which were obtained after introduction of lymphocyte suspension, constituted the raw: 100 μg/ml, 10 μg/ml, 1 μg/ml. The final concentration of lymphocytes in the induction mixture was 3×10^6 cell/ml.
In parallels to the test samples the following controls were done: • 1). Control of spontaneous production of interferons (IFN) by lymphocytes. • 2). […] Control of spontaneous production of interferons in presence of DMSO taken in an amount corresponding to the test samples.
Control and test samples were incubated for 24 hours at the temperature of 37° C. After incubation, the samples were centrifuged at 2,000 G to deposit cell elements, and IFN-containing supernatant was separate out of samples; then the supernatant was analyzed for the quantitative content of IFN. Cell deposition was resuspended in the previous volume of nutrient medium, coloured with vital dye trypan blue, and cell number was counted in the Goryaev chamber (as described above) to determine cytotoxic action of the compounds. The quantitative determination of content of IFN in control and test samples was conducted using the immunoenzyme test system Pro Con IF2 Plus, that is intended for determination of IFN-α, which is produced by TOO “Protein contour”. The solid-phase immunoenzyme method, utilizing horse radish peroxidase as an indicator enzyme, was used to determine the quantity of interferon in the samples. Activity of the bonded peroxidase was measured using an automatic photometer for microplates with a microprocessor at the wavelength of 450 nm.
Based on the obtained results, a calibrating curve was formed, which allows to obtain data expressed in international units (IU) of activity, using the microprocessor of the automatic photometer. The results of the analysis are expressed in IU of activity of IFN per ml in the given induction system, which contains 3×10^4 lymphocyte/ml. Each test and control point was investigated in four parallels.
Controls of immunoenzyme reaction: • 1. Control of DMSO with a nutrient medium. • 2. Control of system components (according to an instruction).
The obtained data were undergone a statistical analysis using t-criterion, and calculation of the confident interval of probability at p=0.05 was carried out. Coincidence of results in the parallel tests was analyzed.

C.trachomatis D323 = experiment: Action on Chlamydia trachomatis in cell culture; type: cell-based; conditions: 100 mg/l; for Number of unchanged cells: 48 hours, counted in 100 visual fields, cell control 8.000, infected cells 6.000
Procedure: The antimicrobial activity of the claimed compounds was studied relative to C.trachomatis […], which is a standard strain from the collection of the chair of microbiology of St. Petersburg State Pavlov Medical University. […] Cell cultures McCoy and L929 obtained from the Institute of Cytology of RAS were used in this work. Cells were grown in flasks made of neutral glass in the medium RPMI-1640 with the addition of 10% of fetal calf serum. The test was performed in glass (non-toxic) flat-bottom flasks with cover glasses. The cells were introduced into the medium in the final concentration of […]. […] Simultaneously, tested compounds in a final concentration of 100 mg/l were added to the cells. The sample was centrifuged at 2400 G during 60 minutes at room temperature and incubated at 37° C. for 2 hours. […] The samples were doubled using the medium without cycloheximide so as to exclude its effect on the investigated compounds. The samples were incubated in a CO2-incubator for 48 hours. […] The effect of the action of substance was determined by analysis of the monolayer state and number of cells with CPI when compared with the control (cell culture infected with C.trachomatis […]); in doing so, the number of unchanged cells, that were counted in 100 visual fields obtained using the special net of the microscope eyepiece, was taken into consideration. […] Control of cell culture: morphology of cells and state of monolayer correspond to the given type of the cells; control of chlamydia growth in the cell culture: presence of CPI in the monolayer; control of action of standard antimicrobial agent: reduction of number of CPI in the monolayer as compared to the previous control; control of toxicity of the claimed compounds: toxicity is absent; control of action of solvents: toxic action on cells is absent.

Nc1nc2c(ncn2COCCO)c(=O)[nH]1 [Acyclovir, reference compound]
Quantity of the unchanged cells (number of cells in 100 visual fields) ([1]; Acyclovir): 8000* | percentage of protection of cells from virus ([1]; Acyclovir): (80%)**

Nc1ncnc2c1ncn2[C@@H]1O[C@H](CO)[C@@H](O)[C@H]1O [Adenosine, reference compound]
inhibition at 5 µg/mL ([2]; 5 μg/ml): 100%

CC(=O)Oc1ccccc1C(=O)O [Aspirin, aspirin, reference compound]
inhibition at 9 µg/mL ([2]; 9 μg/ml): 100%

CN(C)CCCN1c2ccccc2Sc2ccc(Cl)cc21 [Chlorpromazine, reference compound]
% of animals with ulcers ([3]; rats, 4 hours stress, control 100): 33% | % of reducing number of ulcers ([3]; versus control): −96% | % of reducing ulceration index ([3]; versus control): −97% | Number of lesions ([3]; control 8.3 ± 2.5): 0.3 ± 0.3 | ulceration index ([3]; control 10.5 ± 5.7): 0.3 ± 0.3

COc1ccc(Cl)cc1C(=O)NCCc1ccc(S(=O)(=O)NC(=O)NC2CCCCC2)cc1 [Glibenclamide, reference compound]
% change of glucose relative to glucose control [4]: −40% | Glucose in blood ([4]; glucose 1000 mg/kg s.c., after one hour): 4.95 ± 0.31 mmol/L

CC(C)(C)N1C(=O)NC(=O)C(=NO)C1=O [III]
Quantity of the unchanged cells (number of cells in 100 visual fields) ([1]; compound 100 μg/ml): 5000 | percentage of protection of cells from virus ([1]; compound 100 μg/ml): (50%) | Content of IFN in induction mixture after 24-hour incubation ([5]; substance 1 mg/l): 4.2 ± 0.8 IU/3 × 10^4 lymph./ml | Content of IFN in induction mixture after 24-hour incubation ([5]; substance 10 mg/l): 23.5 ± 1.2 IU/3 × 10^4 lymph./ml | Content of IFN in induction mixture after 24-hour incubation ([5]; substance 100 mg/l): 65 ± 1.2 IU/3 × 10^4 lymph./ml | percentage of cell protection from infection (C.trachomatis D323): (50%) | Number of unchanged cells (C.trachomatis D323): 7.000

COc1ccc(CN2C(=O)NC(=O)C(=NO)C2=O)cc1 [XIII]
Quantity of the unchanged cells (number of cells in 100 visual fields) ([1]; compound 100 μg/ml): 4500 | percentage of protection of cells from virus ([1]; compound 100 μg/ml): (45%) | percentage of cell protection from infection (C.trachomatis D323): (50%) | Number of unchanged cells (C.trachomatis D323): 7.000

O=C1NC(=O)N(Cc2ccc(F)cc2)C(=O)C1=NO [XII]
Quantity of the unchanged cells (number of cells in 100 visual fields) ([1]; compound 100 μg/ml): 4000 | percentage of protection of cells from virus ([1]; compound 100 μg/ml): (40%) | percentage of cell protection from infection (C.trachomatis D323): (30%) | Number of unchanged cells (C.trachomatis D323): 6.600

O=C1NC(=O)N(Cc2ccccc2)C(=O)C1=NO [XI]
Quantity of the unchanged cells (number of cells in 100 visual fields) ([1]; compound 100 μg/ml): 3500 | percentage of protection of cells from virus ([1]; compound 100 μg/ml): (35%) | Content of IFN in induction mixture after 24-hour incubation ([5]; substance 1 mg/l): 32.8 ± 1.0 IU/3 × 10^4 lymph./ml | Content of IFN in induction mixture after 24-hour incubation ([5]; substance 10 mg/l): 53.5 ± 1.2 IU/3 × 10^4 lymph./ml | Content of IFN in induction mixture after 24-hour incubation ([5]; substance 100 mg/l): 60 ± 1.8 IU/3 × 10^4 lymph./ml
